Measurements from PMC3236199, “Development of Derivatives of 3, 3′-Diindolylmethane as Potent Leishmania donovani Bi-Subunit Topoisomerase IB Poisons” (PLoS ONE, 2011).

How the values were obtained:
[1] = tested on: DIM resistant L. donovani axenic amastigotes; assay: Cell viability assay, DIM resistant axenic amastigotes; type: cell-based; conditions: Leishmania donovani, 12 h, read-out: growth inhibited
Method: L. donovani strain AG83 and DIM resistant parasite DR50 promastigotes were grown at 22°C in M199 liquid media supplemented with 10% FBS as described. Axenic amastigotes were cultured in modified M199 medium (pH 5.3) supplemented with 10 mM sodium succinate, 40 mM HEPES and 25% FCS and maintained at 37°C with 5% CO2.The effect of drugs on the viability of Leishmania parasites was determined by direct microscopic counting using light microscope (40× objective) in a haemocytometer. The cells at the exponential phase were collected and transferred into 24-well plate (3.5×10^6 cells per well). The cells were then incubated for 12 h in the presence of various concentrations of DIM, DPDIM, DMDIM and DMODIM (1, 5, 10, 20 and 50 µM). For other experiments, 10^4 cells were taken and grown in presence of the respective derivatives for a period of 30 days. For each 5 day interval, a small amount of aliquots were taken out. After incubation the cells were centrifuged and cell pellet was washed with PBS (1×) twice and finally suspended in 1 ml PBS (1×). Fifty µl of aliquot was taken, mixed with 0.4% trypan blue solution and incubated for 3 min at 22°C. One drop of the mixture was transferred to haemocytometer and the clear (live) and blue (dead) cells were counted. The total number of viable cells in aliquot was calculated by multiplying the total number of viable cells by 2 (the dilution factor for trypan blue). […] Percentages of viable cells were calculated using the formula: [drawing 1]
Figure 3 Effectiveness of clearance of internalized L. donovani (AG83) from in vitro infected mouse M [drawing 3] . […] Cells were fixed, stained with Giemsa and counted under bright field microscope. […] Experiments were carried out for three times and representative results are the mean ± S.D. (B) Growth of DIM resistant L. donovani axenic amastigotes were monitored in presence of increasing concentrations (2, 5, 10, 20 and 50 µM) of DIM, DPDIM, DMDIM and DMODIM for 12 h. […] Growth of the parasites treated with the compounds was expressed as percentage of the viable promastigotes compared with that of control. […]

[2] = tested on: wild type L. donovani AG83 promastigotes; assay: DNA fragmentation assay (cell death detection ELISA), wild type; type: cell-based, Leishmania donovani; conditions: 20 µM
Method: Leishmanial cells were cultured in 24-well plates and treated with 20 µM of DIM, DPDIM, DMDIM and DMODIM for different times. Samples were collected at requisite time points and subjected to measurement of DNA fragmentations. Cytoplasmic histone-associated DNA fragments (mononucleosome and oligonucleosomes) formed during apoptosis were detected using a cell death detection ELISA kit (Roche Biochemicals) by spectrophotometric measurement of microtiter plates in a Thermo MULTISKAN EX plate reader at 405 nm. The relative percentages (with respect to samples treated with micrococcal nuclease and normalized to percentage values) were plotted as units of time or drug concentrations as described previously.
The internucleosomal DNA digestion by an endogenous nuclease (genomic DNA fragmentation) is considered as a hallmark of apoptotic cell death. […] To investigate whether these derivatives also do the same, we performed the DNA fragmentation assay with wild type L. donovani AG83 promastigotes and DIM resistant parasites (Fig. 4) by ELISA as described in Materials and Methods. […] DNA fragmentation increased to 85%, 89%, 81% and 71% at 8 h of treatment in wild type parasites. The DIM resistant parasites (LdDR50) have much less effect in DNA fragmentation (13% at 6 h and 17% at 8 h) when treated with 20 µM DIM. On the other hand the extents of DNA fragmentations were 63%, 51% and 40% at 6 h treatment with DPDIM, DMDIM and DMODIM respectively. The extent of fragmentation increased to 82%, 74% and 65% after treatment for 8 h with the drugs as mentioned above.
Figure 4 DIM derivatives-induced fragmentation of genomic DNA in wild type and DIM resistant parasites. Relative percentage of DNA fragmentation measured by cell death detection ELISA kit in L. donovani promastigotes treated with DIM, DPDIM, DMDIM and DMODIM. The experiments were performed three times and representative data from one of these experiments as means ± SD.

Structure (SMILES) | inhibition at 50 µM [1] [%] | fragmentation of DNA ([2]; 6 h) [%] | fragmentation of DNA ([2]; 8 h) [%]
Cc1[nH]c2ccccc2c1Cc1c(C)[nH]c2ccccc12 [DMDIM, 2,2′-dimethyl 3,3′-diindolyl methane] | 92 | 60 | 81
COc1ccc2[nH]cc(Cc3c[nH]c4ccc(OC)cc34)c2c1 [DMODIM, 5,5′-dimethoxy 3,3′-diindolyl methane] | 79 | 49 | 71
c1ccc2c(Cc3c[nH]c4ccccc34)c[nH]c2c1 [DIM, 3, 3′-diindolyl methane, reference compound] | – | 73 | 85
c1ccc(-c2[nH]c3ccccc3c2Cc2c(-c3ccccc3)[nH]c3ccccc23)cc1 [DPDIM, 2,2′-diphenyl 3,3′-diindolyl methane] | 98 | 79 | 89
